# Experiments:
# [1] = system: MCF-7 cells (MUC1+, HLA-A*0201+); experiment: 51Cr-release assay, peptide-induced CTLs from normal donors; type: cell-based, human
# Protocol: PBLs underwent two rounds of stimulation and sorted CD8^+ T cells were subjected to a ^51Cr-release assay.
# PBMCs (2 × 10^6 cells/mL of AIM V medium) were transferred to a 24-well plate and incubated for 2 h at 37 °C. Non-adherent lymphocytes were washed off with PBS and the adherent cells were cultured in X-VIVO medium containing GM-CSF (1000 U/mL) and IL-4 (1000 U/mL) to generate DCs. On day four, the DCs were washed with PBS and pulsed for 2 h with the specific MUC1 peptide (50 μg/mL) (Table 1) and PADRE peptide (10 μg/mL) along with recombinant β2-microglobulin (3 μg/mL) in freshly prepared X-VIVO medium (1 mL per well) containing GM-CSF (1000 U/mL) and IL-4 (1000 U/mL). Lipopolysaccharide (LPS) at 1 μg/mL and tumor necrosis factor-α (TNFα) at 10 ng/mL were added to the peptide-pulsed DCs for 48 h to mature the DCs. […] For the first stimulation (R1 stimulation), PBMCs (2 × 10^6 cells/mL of T cell medium per well) were transferred to the irradiated and washed peptide-pulsed mature DCs at a stimulator to responder ratio of 1:10 in the presence of IL-7 (10 ng/mL). […] After three days, IL-2 at 1 ng/mL was added and refreshed every three days. On day 12 post R1 stimulation, CD8^+ T cells were sorted using CD8 microbeads (Miltenyi, Sunnyvale, CA, USA) as per the manufacturer’s protocol. […] Five to seven days later, T cells were analyzed for cytolytic activity by ^51Cr-release assay and interferon gamma production by ELISPOT.
# The lytic activity of the in vitro stimulated peptide-specific CTLs was measured by a standard six-hour ^51Cr-release assay. […] After incubation, 30 μL of supernatant was transferred onto LUMA plates (Perkin Elmer, Waltham, MA, USA) and radioactive ^51Cr release was measured in a Topcount Micro-scintillation Counter (Packard Biosciences, Shelton, CT, USA). Percent specific lysis was calculated according to the following formula: Percent specific lysis = (experimental cpms − spontaneous cpms)/(complete cpms − spontaneous cpms) × 100. […]
# [2] = system: CD8+ T cells (IFNγ production); experiment: IFNγ ELISpot of peptide-induced CD8+ T cells; type: cell-based, human; details: normal donors, two rounds of stimulation, 24 h on ELISpot plate
# Protocol: Figure 5 Production of IFNγ by CD8^+ T cells was induced in response to MUC1 peptides. Following two rounds of stimulation, CD8^+ cells were maintained for 24 h on an ELISpot plate. Spot numbers were determined using computer assisted video image analysis by Zellnet Consulting Inc. There were no significance differences compared to the negative peptide (p > 0.05).
# IFNγ ELISpot plates from Mabtech (Stockholm, Sweden) were used to detect IFNγ producing MUC1-specific CTLs. The assay was performed using the capture IFNγ antibody as recommended by the manufacturer. Day five post R2-stimulation, the CTLs were washed three times and 1 × 10^5 cells were transferred to the washed and blocked IFNγ ELISpot plates and incubated at 37 °C in a 5% CO2 incubator for 24 h. After incubation the plates were washed with PBS, incubated with alkaline phosphatase-conjugated IFNγ antibody at room temperature for two hours and then spots were detected with BCIP/NBT substrate. Spot numbers were determined using computer assisted video image analysis by Zellnet Consulting Inc. (Fort Lee, NJ, USA).
# [3] = system: CD8+ T cells from HLA-A*0201 breast cancer patients; experiment: 3H-thymidine proliferation of T cells from breast cancer patients; type: cell-based, human; details: 23 HLA-A*0201 breast cancer patients, DCs pulsed with 10 μg/mL peptide + IL-2, 5 days, vs no-peptide stimulated T cells
# Protocol: CD8^+ T cells from the patients were incubated with irradiated autologous DCs pulsed with the various MUC1 peptides (10 μg/mL) plus IL-2 for 5 days and proliferation was assessed by measuring the ^3H-thymidine uptake. T cells from ~38% of the breast cancer patients responded to the selected MUC1 peptides (Figure 6).
# Figure 6 T cells from ~38% of the HLA-A2^+ breast cancer patients regardless of their stage, ER/PR and HER2 status responded to the selected MUC1 peptides. 1 × 10^5 T cells were incubated with irradiated […] DCs pulsed with the various MUC1 peptides (10 μg/mL) + IL-2 for 5 days in complete media. Proliferation was assessed by measuring the ^3H-thymidine uptake and is reported as fold increase in counts per minute. The dotted line indicates the two-fold increase in proliferation.
# [4] = target: HLA-A*0201 molecules (Homo sapiens, UniProt P04439, D140Y/D185E/D98H/E176V/E277Q/G131W/G231S/I119V/I121R/I166T/I218V/L300P/L318F/N151K/N90K/P208A/P217A/Q86G/Q94H/R138H/R169H/T345S); experiment: Competitive peptide inhibition assay (F1-peptide displacement on T2 cells); details: discussion; '8- to 30-fold, respectively'
substance,measurement,setting,value
SLAPT(Tn)VHNV [P4],Lysis of MCF-7 cells by CTLs elicited with the peptide,"[1]; 8 normal post-menopausal HLA-A*0201 women, E:T 100:1, 6 h, p = 0.008 vs negative control P11",significant lysis
same,Percent of donors that will respond (lower limit of 95% CI),[1]; based on considering 30% cell kill a response,at least 35%
same,% of Donors with at Least 30% Cell Kill,"[1]; normal donors (n = 8), MCF-7 targets, E:T 100:1, 30% cell kill considered a response",75%
same,IFNγ production by CD8+ T cells generated to the peptide,[2],showed production of IFNγ
same,Patients responding with >2-fold increase in proliferation,[3],10/23
same,Fold higher affinity than the known M1.1 and M1.2 MUC1 peptides,[4],8 fold
